Laboratory results published in US20170038387A1, “METHODS FOR TREATING CHRONIC LYMPHOCYTIC LEUKEMIA AND THE USE OF BIOMARKERS AS A PREDICTOR OF CLINICAL SENSITIVITY TO IMMUNOMODULATORY THERAPIES” (Celgene Corporation, priority 2015, published 2017).

Tests used:
primary CLL samples = experiment: TMT-tagging and mass-spectrometry profiling of relative protein abundance after compound exposure; assay type: cell-based, human
Excerpt: Data import: Relative abundance (RA) data was imported into the R statistical programming environment v.3.1.2. Proteins with less than one spectral count in any of the three MS runs for each case scenario were filtered out and relative abundance was scale normalized to the same median by using normalizeBetweenArrays( ) function implemented in the limma package for Bioconductor (see Yang et al., Nucleic Acids Research, 30(4), e15 (2002)).
Comparative analysis: RA scores were log 2-transformed to perform direct comparison of compounds exposure versus DMSO control and a paired moderated t-test (see Smyth, Statistical Applications in Genetics and Molecular Biology, 3(1), article 3 (2004)) was performed by using lmfit( ) and eBayes( ) functions form limma package to test differential relative abundance between experimental conditions. For differential analysis across cases, the log-2 fold changes of replicates for two of the case scenarios were considered.
Linear regression analysis: Linear regression was modeled by using lm( ) function from the stats package. This function provided the correlation coefficients as well as the linear fitted model. Data were assessed for outliers detection within the linear model via the Studentized residuals method (implemented in outlierTest( ) function from car package) and deemed significant if their q-values were under a threshold of 0.05 (5%).
The proteins subjected to the analysis were those with more than one spectral count matched in three MS runs representing each case scenario. A total of 6114, 6070, 5982 and 5382 proteins were retained for each case scenario. Differential expression analysis was applied to the high and consistent coverage of 4594 proteins quantified across all case scenarios. FIGS. 2A-2D show distribution of normalized relative abundances for each replicate of the four case scenarios (Cases B1-B4). The standard deviation of each replicate is represented as a stair-plot line at the bottom of the boxplot. FIGS. 3A-3D show heatmaps representing correlations of log 2 fold-changes of protein levels post compound treatment as compared with DMSO across conditions for all case scenarios. Low correlation of log 2 fold-changes at 6 hours may be due to the alteration of a small subset of proteins at an early time point without strong general effects across the proteome. Stronger correlations at 24 hours can be linked to a higher proportion of proteins perturbed reflecting downstream changes upon compound exposure.

[1] = test system: samples from CLL patients; experiment: in vitro proliferation assays on samples from four groups of CLL patients; assay type: cell-based, human
Excerpt: The samples used in this study were from four groups of CLL patients.

CLL cell lines = experiment: Thymidine incorporation assay (cell proliferation); assay type: cell-based
Description: After four days, cells were diluted 1:7 with fresh media, containing the same concentration of treatment compound. Three days later, ^3H-thymidine was added to label proliferating cells for 6-7 hours. Cells were then harvested onto filter plates for counting on a scintillation counter.

[2] = Cmp A vs. len, Case B1, 10 μM, 24 hours
[3] = Cmp A vs. len, Case B2, 10 μM, 24 hours
[4] = Cmp A vs. len, Case B3, 10 μM, 24 hours
[5] = FIG. 5 heatmap, 10 μM, 24 hours, vs DMSO

## Cc1nc2cccc(N)c2c(=O)n1C1CCC(=O)NC1=O (stereo not drawn) [Compound A, 3-(5-amino-2-methyl-4-oxo-4H-quinazolin-3-yl)-piperidine-2,6-dione]
Primary CLL samples; [2]
  logFC IKZF1 (Q13422-2): −2.169
  logFC IRF8 (Q02556): −0.5643
  logFC KLF13 (Q9Y2Y9): −1.092
  logFC LGALS9 (O00182): −0.5646
  logFC MARCKS (P29966): 1.438
  logFC NDE1 (Q9NXR1): 0.7281
  logFC NFKBIE (O00221): −0.7408
  logFC PTK2B (Q14289-2): 0.9815
  logFC SAMSN1 (Q9NSI8): 0.6554
  logFC SELL (P14151-2): −1.823
  logFC SLAMF1 (Q13291): 0.9251
  logFC SNX20 (Q7Z614): −0.5611
  logFC SOD2 (P04179): 0.6081
  logFC TCF7 (P36402-3): −0.7071
  logFC TRAF1 (Q13077): 0.768
  logFC WIZ (M0QXA7): −0.4839
  logFC ZBTB10 (Q96DT7): 0.9382
Primary CLL samples; [3]
  logFC IKZF1 (Q13422): −2.186
  logFC IKZF3 (Q9UKT9): −2.626
Primary CLL samples; [4]
  logFC CD40 (P25942): 0.8064
  logFC CR2 (P20023-3): 0.7925
  logFC CTSS (P25774): 0.5932
  logFC GBP1 (P32455): 1.117
  logFC IKZF1 (Q13422): −2.686
  logFC IKZF3 (Q9UKT9): −1.425
  logFC ISG20 (Q96AZ6): 0.6234
  logFC PTK2B (Q14289-2): 0.8361
  logFC SAMSN1 (Q9NSI8): 0.89
  logFC SASH1 (O94885): 0.7177
  logFC SELL (P14151-2): −1.03
  logFC SEMA7A (O75326): 0.904
  logFC SLAMF1 (Q13291): 1.086
  logFC SOD2 (P04179): 0.6319
  logFC TRAF1 (Q13077): 0.7523
Primary CLL samples; Cmp A vs. len, Case B4, 10 μM, 24 hours
  logFC PDE6D (O43924): −1.494
Primary CLL samples; [5]
  IKZF1 (Ikaros) protein level: decreases across all experimental conditions with stronger effect upon Compound A exposure
  levels of Group 4 proteins (6 proteins including IKZF3 and a second IKZF1 isoform) upon exposure: decrease significantly
  protein abundance levels of Group 3 proteins (SMNX20, SELL, KLF13, WIZ, IKZF1, NFKBIE, TCF7 and IRF8) upon exposure: decrease
Primary CLL samples; resistant scenario (Case B4)
  STAT1 protein abundance, log 2 fold-change vs DMSO: −0.018
Primary CLL samples; sensitive patient sample (Case B3)
  STAT1 protein abundance, log 2 fold-change vs DMSO: 0.547
[1]; samples from the fourth group of patients (Case B4)
  effect on cell proliferation: neither Compound A nor lenalidomide had any effect on cell proliferation
[1]; samples from the second group of patients (Case B2)
  effect on cell proliferation: stronger proliferation reduction effect than lenalidomide
[1]; samples from the third group of patients (Case B3)
  effect on cell proliferation: reduced cell proliferation
CLL cell lines; 1 μM Compound A vs 10 μM lenalidomide, EHEB, I83-E95, Mec2, CII, and CI
  cell growth inhibition: more cell growth inhibition
CLL cell lines; Bucket #1 (EHEB and I83-E95)
  responsiveness of cell lines to treatment: responsive to both compounds
CLL cell lines; Bucket #2 (Mec2, CII, and CI)
  responsiveness of cell lines to treatment: more sensitive to Compound A than to lenalidomide
CLL cell lines; Bucket #3 (WA-C3-CD5, WA-OSEL, Mec1, and PGA1)
  responsiveness of cell lines to treatment: responsive to Compound A
CLL cell lines; Bucket #4 (HG3)
  responsiveness of cell lines to treatment: not responsive to either Compound A or lenalidomide
